Data taken from patent US10072006B2 (MUTABILIS, priority 2015, dated 2018).
Converted amounts (≈) assume the structure as drawn. Where two headings read alike, the source gives them in different places.

Tests used:
TEM-1 = target: T1, TEM-1 (Escherichia coli, UniProt P62593); experiment: β-lactamase inhibitory activity, determination of IC50 (nitrocefin hydrolysis); assay type: biochemical; details: class (A), 30 min pre-incubation
T1 construct: made in house; host or cells: E. coli

SHV-1 = target: T2, SHV-1 (Klebsiella pneumoniae, UniProt P0AD64); experiment: as above; assay type: biochemical
T2 construct: made in house; host or cells: E. coli

CTX-M-15 = target: T3, CTX-M-15 (Escherichia coli, UniProt Q9EXV5); experiment: as above; assay type: biochemical
T3 construct: made in house; host or cells: E. coli

KPC-2 = target: T4, KPC-2 (Klebsiella pneumoniae, UniProt Q9F663); experiment: as above; assay type: biochemical
T4 construct: made in house; host or cells: E. coli

OXA-1 = target: T5, OXA-1 (Escherichia coli, UniProt P13661); experiment: as above; assay type: biochemical
T5 construct: made in house; host or cells: E. coli

OXA-11 = target: T6, OXA-11 (Pseudomonas aeruginosa, UniProt Q06778); experiment: as above; assay type: biochemical
T6 construct: made in house; host or cells: E. coli

OXA-15 = target: T7, OXA-15 (Pseudomonas aeruginosa, UniProt Q51574); experiment: as above; assay type: biochemical
T7 construct: made in house; host or cells: E. coli

OXA-48 = target: T8, OXA-48 (Klebsiella pneumoniae, UniProt Q6XEC0); experiment: as above; assay type: biochemical
T8 construct: made in house; host or cells: E. coli

[1] = test system: E. cloacae P99 (Derepressed ampC); experiment: MIC of compounds and synergy with ceftazidime (broth microdilution); assay type: cell-based; details: for MIC: Enterobacter cloacae, 18 h, read-out: MIC compounds of the invention alone; for MIC, combination of CAZ and compounds of the invention: MIC of ceftazidime with compound fixed at 4 μg/mL
Procedure: (§1) Briefly, compounds alone according to the invention were prepared in DMSO and spotted (2 μL each) on sterile polystyrene plates (Corning, 3788). […] Microplates were incubated for 16-20 h at 35° C. in ambient air. The MIC of the compounds was defined as the lowest concentration of said compounds that prevented bacterial growth as read by visual inspection.

[2] = test system: E. coli 131119 (TEM-1, OXA-48); experiment: as above; assay type: cell-based; details: Escherichia coli, 18 h, read-out: MIC compounds of the invention alone
Procedure: as §1

E. coli RGN238 (OXA-1) = experiment: as above; assay type: cell-based; details: Escherichia coli, 18 h, read-out: MIC compounds of the invention alone
Procedure: as §1

[3] = test system: K. pneumoniae 6299 (TEM-1, SHV-11, OXA-163); experiment: as above; assay type: cell-based; details: for MIC: Klebsiella pneumoniae, 18 h, read-out: MIC compounds of the invention alone; for MIC, combination of CAZ and compounds of the invention: MIC of ceftazidime with compound fixed at 4 μg/mL
Procedure: as §1

[4] = test system: K. pneumoniae BAA-1898 (TEM-1, SHV-11, SHV-12, KPC-2); experiment: as above; assay type: cell-based; details: for MIC: Klebsiella pneumoniae; for MIC, combination of CAZ and compounds of the invention: MIC of ceftazidime with compound fixed at 4 μg/mL
Procedure: as §1

[5] = test system: P. aeruginosa CIP105250 (OXA-15); experiment: as above; assay type: cell-based; details: for MIC, combination of CAZ and compounds of the invention: MIC of ceftazidime with compound fixed at 4 μg/mL; for MIC: Pseudomonas aeruginosa, read-out: MIC compounds of the invention alone
Procedure: as §1

[6] = test system: P. aeruginosa CIP107051 (TEM-24); experiment: as above; assay type: cell-based; details: for MIC, combination of CAZ and compounds of the invention: MIC of ceftazidime with compound fixed at 4 μg/mL; for MIC: Pseudomonas aeruginosa, read-out: MIC compounds of the invention alone
Procedure: as §1

[7] = test system: P. aeruginosa UFR35 (OXA-23); experiment: as above; assay type: cell-based; details: for MIC, combination of CAZ and compounds of the invention: MIC of ceftazidime with compound fixed at 4 μg/mL, strain UFR35 (P. aeruginosa)
Procedure: as §1

[8] = test system: P. aeruginosa UFR47 (VIM-1); experiment: as above; assay type: cell-based; details: for MIC, combination of CAZ and compounds of the invention: MIC of ceftazidime with compound fixed at 4 μg/mL, strain UFR47 (P. aeruginosa)
Procedure: as §1

[9] = test system: P. aeruginosa UFR48 (VIM-2); experiment: as above; assay type: cell-based; details: for MIC, combination of CAZ and compounds of the invention: MIC of ceftazidime with compound fixed at 4 μg/mL, strain UFR48 (P. aeruginosa)
Procedure: as §1

[10] = test system: P. aeruginosa UFR59 (IMP-29); experiment: as above; assay type: cell-based; details: for MIC, combination of CAZ and compounds of the invention: MIC of ceftazidime with compound fixed at 4 μg/mL, strain UFR59 (P. aeruginosa)
Procedure: as §1

[11] = test system: P. aeruginosa UFR90 (Derepressed ampC, OprD-); experiment: as above; assay type: cell-based; details: for MIC, combination of CAZ and compounds of the invention: MIC of ceftazidime with compound fixed at 4 μg/mL, strain UFR90 (P. aeruginosa)
Procedure: as §1

[12] = test system: P. aeruginosa UFR92 (Derepressed ampC, OprD-); experiment: as above; assay type: cell-based; details: for MIC, combination of CAZ and compounds of the invention: MIC of ceftazidime with compound fixed at 4 μg/mL, strain UFR92 (P. aeruginosa)
Procedure: as §1

[13] = test system: P. aeruginosa UFR93 (Derepressed ampC, OprD-, MexAB+, MexXY+); experiment: as above; assay type: cell-based; details: for MIC, combination of CAZ and compounds of the invention: MIC of ceftazidime with compound fixed at 4 μg/mL, strain UFR93 (P. aeruginosa)
Procedure: as §1

[14] = test system: E. coli 190317 (TEM-1, SHV-12, CTX-M-15, OXA-1); experiment: microbe, parasite or virus in culture; assay type: cell-based; details: for MIC: Escherichia coli, 18 h, read-out: MIC compounds of the invention alone; for MIC, combination of CAZ and compounds of the invention: MIC of ceftazidime with compound fixed at 4 μg/mL, strain 190317 (E. coli)
Procedure: as §1

AmpC (P99) = AmpC (P99) (Enterobacter cloacae, UniProt P05364); experiment: biochemical
AmpC (PAE) = AmpC (PAE) (Pseudomonas aeruginosa, UniProt P24735); experiment: biochemical
[15] = strain BAA-1898 (K. pneumoniae)
[16] = strain CIP105250 (P. aeruginosa)
[17] = strain CIP107051 (P. aeruginosa)
[18] = Pseudomonas aeruginosa, 18 h, read-out: MIC compounds of the invention alone

Which results are given for `NC[C@@H]1C=C(c2cnco2)[C@@H]2CN1C(=O)N2OC(F)(F)C(=O)O` (relative stereo) [Example 3, lithium and 2,2,2-trifluoroacetate [trans-2-(azaniumylmethyl)-4-oxazol-5-yl-7-oxo-1,6-diazabicyclo[3.2.1]oct-3-en-6-yl]oxy]-2,2-difluoro-acetate]?
IC50 (TEM-1): 3 nM; IC50 (SHV-1): 4.6 nM; IC50 (CTX-M-15): 2 nM; IC50 (KPC-2): 33 nM; IC50 (OXA-1): 17 nM; IC50 (OXA-11): 48 nM; IC50 (OXA-15): 1.6 nM; IC50 (OXA-48): 5.7 nM; MIC [1]: 0.063 µg/mL; MIC, combination of CAZ and compounds of the invention ([1]; strain P99 (E. cloacae)): <0.125 µg/mL; MIC [2]: 0.5 µg/mL; MIC (E. coli RGN238 (OXA-1)): > 32 µg/mL; MIC [3]: > 32 µg/mL; MIC, combination of CAZ and compounds of the invention ([3]; strain 6299 (K. pneumoniae)): 1 µg/mL; MIC ([4]; BAA1898, read-out: MIC compounds of the invention alone): > 32 µg/mL; MIC, combination of CAZ and compounds of the invention [4, 15]: 1 µg/mL; MIC, combination of CAZ and compounds of the invention [5, 16]: 8 µg/mL; MIC ([5]; CIP105250, 18 h): > 32 µg/mL; MIC, combination of CAZ and compounds of the invention [6, 17]: ≤0.25 µg/mL; MIC ([6]; CIP107051, 18 h): 16 µg/mL; MIC, combination of CAZ and compounds of the invention [7]: <0.25 µg/mL; MIC [7, 18]: 2 µg/mL; MIC, combination of CAZ and compounds of the invention [8]: <0.25 µg/mL; MIC [8, 18]: 4 µg/mL; MIC, combination of CAZ and compounds of the invention [9]: 16 µg/mL; MIC [9, 18]: 8 µg/mL; MIC, combination of CAZ and compounds of the invention [10]: 2 µg/mL; MIC [10, 18]: 16 µg/mL; MIC, combination of CAZ and compounds of the invention [11]: <0.25 µg/mL; MIC [11, 18]: 1 µg/mL; MIC, combination of CAZ and compounds of the invention [12]: ≤0.25 µg/mL; MIC [12, 18]: 8 µg/mL; MIC, combination of CAZ and compounds of the invention [13]: 0.5 µg/mL; MIC [13, 18]: 16 µg/mL; MIC [14]: 0.25 µg/mL (≈ 0.757 µM); MIC, combination of CAZ and compounds of the invention [14]: <0.125 µg/mL; IC50 (AmpC (P99)): 7.4 nM; IC50 (AmpC (PAE)): 220 nM

Which IC50 (TEM-1) does the source give for `Cn1cc(C2=C[C@@H](CN)N3C[C@@H]2N(OS(=O)(=O)O)C3=O)cnc1=O` (relative stereo) [Example 6] here?
Its IC50 is 280 nM.

What about the IC50 (SHV-1) of the same compound?
Its IC50 is 340 nM.

And the IC50 (CTX-M-15)?
Its IC50 is 510 nM.

And the IC50 (KPC-2)?
Its IC50 is 5100 nM.

And the IC50 (OXA-1)?
The IC50 was 1200 nM.

And the IC50 (OXA-11)?
Its IC50 is 1600 nM.

And the IC50 (OXA-15)?
Its IC50 is 68 nM.

And the IC50 (OXA-48)?
Its IC50 is 840 nM.

And the MIC ([1]; strain P99 (E. cloacae))?
Its MIC is 0.125 µg/mL.

And the “MIC, combination of CAZ and compounds of the invention” value (“MIC, combination” for short) ([1]; strain P99 (E. cloacae))?
The value was no more than 0.125 µg/mL.

What about the MIC ([2]; strain 131119 (E. coli)) of the same compound?
Its MIC is greater than 32 µg/mL.

And the MIC (E. coli RGN238 (OXA-1); strain RGN238 (E. coli))?
The MIC was greater than 32 µg/mL.

And the MIC ([3]; strain 6299 (K. pneumoniae))?
Its MIC is greater than 32 µg/mL.

And the “MIC, combination” value ([3]; strain 6299 (K. pneumoniae))?
The value was 4 µg/mL.

And the MIC ([4]; BAA1898, strain BAA-1898 (K. pneumoniae), read-out: MIC compounds of the invention alone)?
The MIC was greater than 32 µg/mL.

And the “MIC, combination” value [4, 15]?
Its value is 4 µg/mL.

What about the “MIC, combination” value [5, 16] of the same compound?
Its value is 64 µg/mL.

And the MIC ([5]; 18 h, strain CIP105250 (P. aeruginosa))?
Its MIC is 32 µg/mL.

What about the “MIC, combination” value [6, 17] of the same compound?
Its value is 32 µg/mL.

And the MIC ([6]; 18 h, strain CIP107051 (P. aeruginosa))?
Its MIC is 16 µg/mL.

What about the “MIC, combination” value [7] of the same compound?
The value was less than 0.25 µg/mL.

What about the “MIC, combination” value [8] of the same compound?
The value was less than 0.25 µg/mL.

And the “MIC, combination” value [9]?
Its value is less than 0.25 µg/mL.

And the “MIC, combination” value [10]?
The value was less than 0.25 µg/mL.

What about the “MIC, combination” value [11] of the same compound?
Its value is less than 0.25 µg/mL.

And the “MIC, combination” value [12]?
The value was less than 0.25 µg/mL.

And the “MIC, combination” value [13]?
Its value is less than 0.25 µg/mL.

What about the MIC [14] of the same compound?
The MIC was 0.125 µg/mL (≈ 0.35 µM).

And the “MIC, combination” value [14]?
Its value is less than 0.125 µg/mL.

And the IC50 (AmpC (P99))?
Its IC50 is 6400 nM.

And the IC50 (AmpC (PAE))?
The IC50 was 38000 nM.
